Laboratory results as given in ChEMBL document CHEMBL3832761, “MMV Pathogen Box Bioactivity Data” (2017).

How the values were obtained:
Wolbachia = assay: Anti-Wolbachia activity Reduction in Wolbachia infected cells at 10 uM (%); format: functional, cell-based; design: Activity: scale not given: the % may be the effect or the level left
HepG2 [1] = assay: Cytotoxicity data HepG2 CC20 (uM); format: functional
Dengue virus [2] = assay: AntiDengue activity HCI DV1/A549 IC50 (uM); format: functional, organism-based
Dengue virus [3] = assay: AntiDengue activity HCI DV2/A549 IC50 (uM); format: functional, organism-based
Dengue virus [4] = assay: AntiDengue activity HCI DV2/Huh7 IC50 (uM); format: functional, organism-based; settings: Huh-7
Dengue virus [5] = assay: AntiDengue activity HCI DV3/A549 IC50 (uM); format: functional, organism-based
Dengue virus [6] = assay: AntiDengue activity HCI DV4/A549 IC50 (uM); format: functional, organism-based
[7] = AntiChikungunya activity HCI CHIKV/Huh7 IC50 (uM); format: functional, Chikungunya virus
A549 = assay: A549 CC50 (uM) Cytotoxicity; format: functional; settings: Homo sapiens
HepG2 [8] = assay: HepG2 CC50 (uM) Cytotoxicity; format: functional; settings: Homo sapiens
[9] = HUH7 CC50 (uM) Cytotoxicity; format: functional; settings: Huh-7
Brugia malayi = assay: AntiBrugia malayi activity Effect on motility; format: functional, organism-based
Toxoplasma gondii [10] = assay: AntiToxoplasma gondii activity data Inhibition of plaque forming efficiency (%) Experiment A; format: functional; design: concentration or dose not given beside the values
Toxoplasma gondii [11] = assay: AntiToxoplasma gondii activity data Inhibition of plaque forming efficiency (%) Experiment B; format: functional; design: concentration or dose not given beside the values
Toxoplasma gondii [12] = assay: AntiToxoplasma gondii activity data 2-day killing assay: inhibition at 10 uM (%) Experiment C; format: functional; settings: 48 h
Toxoplasma gondii [13] = assay: AntiToxoplasma gondii activity data 2-day killing assay: inhibition at 10 uM (%) Experiment D; format: functional
Toxoplasma gondii [14] = assay: AntiToxoplasma gondii activity data 2-day killing assay: inhibition at 10 uM (%) Experiment E; format: functional
[15] = HL60 CC50 (uM) Cytotoxicity; format: functional; settings: HL-60
Toxoplasma gondii [16] = assay: AntiToxoplasma gondii activity data 2-day killing assay: IC50 (uM), Experiment F; format: functional, organism-based; settings: Toxoplasma gondii, 48 h; read-out: IC50
Toxoplasma gondii [17] = assay: AntiToxoplasma gondii activity data 2-day killing assay: IC50 (uM), Experiment G; format: functional, organism-based; settings: Toxoplasma gondii, 48 h; read-out: IC50
CHO = assay: CHO CC50 (uM) Cytotoxicity; format: functional; settings: Cricetulus griseus
Onchocerca gutturosa [18] = assay: AntiOnchocerca activity O. gutturosa adult males: Motility reduction at 12.5 uM (%); format: functional; design: scale not given: the % may be the effect or the level left
Onchocerca gutturosa [19] = assay: AntiOnchocerca activity O. gutturosa adult males: MTT reduction at 12.5 uM (%); format: functional; design: scale not given: the % may be the effect or the level left
Onchocerca gutturosa [20] = assay: AntiOnchocerca activity O. gutturosa adult males: EC50 (uM); format: functional, organism-based
Onchocerca lienalis = assay: AntiOnchocerca activity O. lienalis microfilariae Motility reduction (%); format: functional; design: concentration or dose not given beside the values
Brugia pahangi [21] = assay: AntiBrugia pahangi activity Average inhibition motility at 10 uM (%); format: functional
Onchocerca ochengi [22] = assay: AntiOnchocerca activity O. ochengi adult females: final mean inhibition motility at 10 uM on Day 7 (%); format: functional
Onchocerca ochengi [23] = assay: AntiOnchocerca activity O. ochengi adult males: final mean inhibition motility at 10 uM on Day 5 (%); format: functional
Onchocerca volvulus [24] = assay: AntiOnchocerca activity O. volvulus L3 Molting assay: inhibition at 10 uM (%); format: functional
Onchocerca volvulus [25] = assay: AntiOnchocerca activity O. volvulus L3 Molting assay: IC50 (uM); format: functional, organism-based
Brugia pahangi [26] = assay: AntiBrugia pahangi activity Average day 3 IC50 (uM); format: functional, organism-based; settings: 72 h
Trypanosoma cruzi = assay: AntiTrypanosoma cruzi activity IC50 (uM); format: functional, organism-based
Trypanosoma brucei [27] = assay: AntiTrypanosoma brucei activity T. b. brucei IC50 (uM); format: functional, organism-based
Trypanosoma brucei [28] = assay: AntiTrypanosoma brucei activity T. b. rhodesiense IC50 (uM); format: functional, organism-based
Leishmania major = assay: AntiLeishmania activity L. major IC50 (uM); format: functional, organism-based
Leishmania infantum = assay: AntiLeishmania activity L. infantum (macrophages) IC50 (uM); format: functional, organism-based
Leishmania donovani [29] = assay: AntiLeishmania activity L. donovani (axenic) IC50 (uM); format: functional, organism-based
Leishmania donovani [30] = assay: AntiLeishmania activity L. donovani (macrophages) IC50 (uM); format: functional, organism-based
Leishmania = assay: AntiLeishmania activity Toxicity on infected PMM (uM); format: functional
L6 = assay: L6 CC50 (uM) Cytotoxicity; format: functional; settings: Rattus norvegicus
MRC5 = assay: MRC5 CC50 (uM) Cytotoxicity; format: functional; settings: Homo sapiens
[31] = PMM CC50 (uM) Cytotoxicity; format: functional; settings: Macrophage

COc1cccn2c(C(=O)N3CCCCC3)c(C(F)(F)F)nc12
IC50 (Wolbachia; Wolbachia): 0.5 µM | CC20 (HepG2 [1]): >80 µM

COC(=O)c1ccc(F)cc1NS(=O)(=O)c1cccc(-c2cnn(Cc3ccccc3)c2)c1
IC50 (Dengue virus [2]): 5 µM | IC50 (Dengue virus [3]): 6 µM | IC50 (Dengue virus [4]): 10 µM | IC50 (Dengue virus [5]): > 50 µM | IC50 (Dengue virus [6]): > 50 µM | IC50 [7]: 10 µM | CC50 (A549): > 50 µM | CC50 (HepG2 [8]): 10 µM | CC50 [9]: 20 µM

CC1(C)OB(O)c2ccc(C3=NOC(c4cc(Cl)c(F)c(Cl)c4)(C(F)(F)F)C3)cc21 (centres undefined)
Inhibition (Brugia malayi): 50% | CC20 (HepG2 [1]): 15.4 µM

CC(C)(C)OC(=O)N1CCC(Cn2nc(-c3cnc4ccccc4c3)c3c(N)ncnc32)CC1
Inhibition (Toxoplasma gondii [10]): 100% | Inhibition (Toxoplasma gondii [11]): ~75% | inhibition at 10 µM (Toxoplasma gondii [12]): 1.88% | Inhibition (Toxoplasma gondii [13]): 36.1% | Inhibition (Toxoplasma gondii [14]): 0% | CC50 [15]: > 50 µM

Nc1ncnc2c1c(-c1cnc3ccccc3c1)nn2CC1CCNCC1
Inhibition (Toxoplasma gondii [10]): ~60% | inhibition at 10 µM (Toxoplasma gondii [12]): 48.8% | Inhibition (Toxoplasma gondii [13]): 72.3% | Inhibition (Toxoplasma gondii [14]): 92.8% | IC50 (Toxoplasma gondii [16]): 6.77 µM | IC50 (Toxoplasma gondii [17]): 7.55 µM | CC50 (CHO): > 50 µM

Oc1c(I)cc(I)c2cccnc12 [IODOQUINOL]
Activity (Onchocerca gutturosa [18]): 100% | Activity (Onchocerca gutturosa [19]): 88% | EC50 (Onchocerca gutturosa [20]): 0.46 µM | Activity (Onchocerca lienalis): 93.3% | CC20 (HepG2 [1]): 2.53 µM

CC(C)(C)OC(=O)N1CCN(c2nccc(-c3ccc(-c4ccc(Cl)cc4)s3)n2)CC1
IC50 (Dengue virus [2]): 7 µM | IC50 (Dengue virus [3]): 7 µM | IC50 (Dengue virus [4]): > 50 µM | IC50 (Dengue virus [5]): 2 µM | IC50 (Dengue virus [6]): 3 µM | IC50 [7]: 10 µM | CC50 (A549): > 50 µM | CC50 (HepG2 [8]): > 50 µM | CC50 [9]: > 50 µM

CC(=O)N(CCN(C(=O)c1ccc(F)cc1)c1ccccc1)c1ccccc1
Inhibition (Brugia pahangi [21]): 4% | Activity (Onchocerca gutturosa [18]): 42.9% | Activity (Onchocerca gutturosa [19]): 0% | Activity (Onchocerca lienalis): 13.3% | Inhibition (Onchocerca ochengi [22]): 4% | Inhibition (Onchocerca ochengi [23]): 0% | Inhibition (Onchocerca volvulus [24]): 100% | IC50 (Onchocerca volvulus [25]): 3.13 µM | CC20 (HepG2 [1]): 39 µM | CC50 [15]: > 50 µM

O=C(Nc1nnc(S)s1)c1cc(Br)ccc1Cl
Inhibition (Brugia pahangi [21]): 69% | IC50 (Brugia pahangi [26]): 9.4 µM | Activity (Onchocerca gutturosa [18]): 29% | Activity (Onchocerca gutturosa [19]): 0% | Activity (Onchocerca lienalis): 27% | Inhibition (Onchocerca ochengi [22]): 4% | Inhibition (Onchocerca ochengi [23]): 0% | Inhibition (Onchocerca volvulus [24]): 36% | CC20 (HepG2 [1]): >80 µM | CC50 [15]: > 50 µM

CC(C)(C)OC(=O)N1CCN(c2cc(-c3ccc(Oc4ccccc4)cc3)n[nH]2)CC1
IC50 (Trypanosoma cruzi): 9.37 µM | IC50 (Trypanosoma brucei [27]): 3.89 µM | IC50 (Trypanosoma brucei [28]): 2.7 µM | IC50 (Leishmania major): 13 µM | IC50 (Leishmania infantum): 10.2 µM | IC50 (Leishmania donovani [29]): 1.32 µM | IC50 (Leishmania donovani [30]): > 10 µM | Toxicity on infected macrophages (Leishmania): 20 µM | CC20 (HepG2 [1]): 4.03 µM | CC50 (L6): 4.8 µM | CC50 (MRC5): > 32 µM | CC50 [31]: 16 µM

CCCCc1ccc(NC(=O)Nc2ccc(O[C@H]3CCCC[C@@H]3N(C)c3ccccc3)c(F)c2)cc1
Inhibition (Brugia pahangi [21]): 61% | IC50 (Brugia pahangi [26]): 8.4 µM | Activity (Onchocerca gutturosa [18]): 14.3% | Activity (Onchocerca gutturosa [19]): 0% | Activity (Onchocerca lienalis): 33.3% | Inhibition (Onchocerca ochengi [22]): 57% | Inhibition (Onchocerca ochengi [23]): 61% | Inhibition (Onchocerca volvulus [24]): 100% | IC50 (Onchocerca volvulus [25]): 1.09 µM | CC20 (HepG2 [1]): 5.77 µM | CC50 [15]: > 6.2 µM

CCS(=O)(=O)N(Cc1ccco1)Cc1cc2ccc(C)cc2nc1O
Activity (Wolbachia): 52% | CC20 (HepG2 [1]): >80 µM

OC[C@H]1O[C@@H](n2c3ccc(Cl)cc3c3c(-c4cc5ccccc5o4)ncnc32)C(O)[C@H]1O (some centres undefined)
IC50 (Dengue virus [2]): 5 µM | IC50 (Dengue virus [3]): 7 µM | IC50 (Dengue virus [4]): > 50 µM | IC50 (Dengue virus [5]): 3 µM | IC50 (Dengue virus [6]): 3 µM | IC50 [7]: > 50 µM | CC50 (A549): > 50 µM | CC50 (HepG2 [8]): 10 µM | CC50 [9]: 1 µM
